Laboratory results published in PubChem BioAssay AID588628 (NMMLSC, 2011).
“And” between values parts separate entries of the source, which are not always exact repeats. Equal entries are not always repeated. The source made the active and inactive calls.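 How the source made its calls: active means fitted EC50 of 10 µM or less with% response changing by at least 30 points across doses; inactive means the rest.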

Target: GTPase HRas (Homo sapiens) (UniProt P01112)
Experiment: activated H-Ras mutant GTP-binding inhibitors, SAR follow-up, biochemical, multiplex bead flow cytometry, round 2 (AID 588628)
Details: bead-based flow cytometry, Bodipy-FL-GTP binding, EDTA

Chain of GTPase HRas (Homo sapiens) (P01112 whole entry, looked up): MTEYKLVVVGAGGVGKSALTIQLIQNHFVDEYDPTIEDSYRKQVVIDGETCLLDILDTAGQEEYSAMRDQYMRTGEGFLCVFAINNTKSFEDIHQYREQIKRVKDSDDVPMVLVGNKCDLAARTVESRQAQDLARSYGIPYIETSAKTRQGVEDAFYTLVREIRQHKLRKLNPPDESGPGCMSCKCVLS

Row | SMILES | EC50
1 | CC1(C)Cc2c(sc(NC(=S)NC(=O)c3ccccc3F)c2C(=O)O)CO1 | 283 nM
2 | Cc1cccc(C(=O)NC(=S)Nc2sc3c(c2C(=O)O)CC(C)(C)OC3)c1 | 854 nM
3 | CC1Cc2c(sc(NC(=S)NC(=O)c3ccccc3)c2C(=O)O)CO1 (centres undefined) | 217 nM
4 | CC1(C)Cc2c(sc(NC(=S)NC(=O)C3CCCCC3)c2C(=O)O)CO1 | 585 nM
5 | CC1(C)Cc2c(sc(NC(=S)NC(=O)c3ccc(Br)cc3)c2C(=O)O)CO1 | 564 nM
6 | CC1(C)Cc2c(sc(NC(=S)NC(=O)c3cccc(F)c3)c2C(=O)O)CO1 | 535 nM
7 | O=C(NC(=S)Nc1sc2c(c1C(=O)O)CCOC2)c1ccccc1 | 85 nM and 207 nM
8 | CC1(C)Cc2c(sc(NC(=O)NC(=O)c3ccccc3)c2C(=O)O)CO1 | 824 nM
9 | COc1ccc(C(=O)NC(=S)Nc2sc3c(c2C(=O)O)CC(C)(C)OC3)cc1 | 276 nM
10 | Cc1ccccc1C(=O)NC(=S)Nc1sc2c(c1C(=O)O)CC(C)(C)OC2 | 379 nM
11 | CC1(C)Cc2c(sc(NC(=S)NC(=O)c3ccccc3Br)c2C(=O)O)CO1 | 1210 nM

Results, then the compound that gave them:

Row | EC50 | SMILES
12 | 33 nM | O=C(NC(=S)Nc1sc2c(c1C(=O)O)CC1(CCCC1)OC2)c1ccccc1
13 | 125 nM | CC(C)(C)C1Cc2c(sc(NC(=S)NC(=O)c3ccccc3)c2C(=O)O)CO1 (centres undefined)
14 | 21 nM | CC1(C)Cc2c(sc(NC(=S)NC(=O)c3ccccc3)c2C(=O)O)CO1
15 | 205 nM | COc1cccc(C(=O)NC(=S)Nc2sc3c(c2C(=O)O)CC(C)(C)OC3)c1
16 | 65 nM | CC1(C)Cc2c(sc(NC(=S)NC(=O)c3ccco3)c2C(=O)O)CO1
17 | 35 nM | CCC1(C)Cc2c(sc(NC(=S)NC(=O)c3ccccc3)c2C(=O)O)CO1 (centres undefined)
18 | 178 nM | Cc1ccc(C(=O)NC(=S)Nc2sc3c(c2C(=O)O)CC(C)(C)OC3)cc1
19 | 24 nM | CC1(C)Cc2c(sc(NC(=S)NC(=O)c3cccs3)c2C(=O)O)CO1
20 | 53 nM | CC1(C)CCc2sc(NC(=S)NC(=O)c3ccccc3)c(C(=O)O)c2C1
21 | 91 nM | CC1(C)Cc2c(sc(NC(=S)NC(=O)c3ccc(F)cc3)c2C(=O)O)CO1

Same assay, conditions: bead-based flow cytometry, Bodipy-FL-GTP binding, EDTA; at 100 µM (top of the series)

Row | % response (binding remaining) | SMILES
22 | inactive | COc1ccccc1C(=O)NC(=S)Nc1sc2c(c1C(=O)O)CC(C)(C)OC2
23 | inactive | CC1(C)Cc2c(sc(NC(=S)NC(=O)c3cccc(Br)c3)c2C(=O)O)CO1
24 | inactive | CC1(C)Cc2c(sc(NC(=S)Nc3ccccc3)c2C(=O)O)CO1
